The values that follow come from US10183950B2, “Thienopyrimidine inhibitors of atypical protein kinase C” (Cancer Research Technology Limited, priority 2011, dated 2019).

The structures appear in SMILES notation. Where only a bound is given, the exact number is not on record here.

In the first assay the target is T1, full-length human PKCι (Homo sapiens, UniProt P41743).
T1 construct: Recombinant, full-length human PKCι expressed in Sf21 insect cells is also commercially available; purchased; host or cells: Sf21 insect cells
T1 sequence (P41743 1-596): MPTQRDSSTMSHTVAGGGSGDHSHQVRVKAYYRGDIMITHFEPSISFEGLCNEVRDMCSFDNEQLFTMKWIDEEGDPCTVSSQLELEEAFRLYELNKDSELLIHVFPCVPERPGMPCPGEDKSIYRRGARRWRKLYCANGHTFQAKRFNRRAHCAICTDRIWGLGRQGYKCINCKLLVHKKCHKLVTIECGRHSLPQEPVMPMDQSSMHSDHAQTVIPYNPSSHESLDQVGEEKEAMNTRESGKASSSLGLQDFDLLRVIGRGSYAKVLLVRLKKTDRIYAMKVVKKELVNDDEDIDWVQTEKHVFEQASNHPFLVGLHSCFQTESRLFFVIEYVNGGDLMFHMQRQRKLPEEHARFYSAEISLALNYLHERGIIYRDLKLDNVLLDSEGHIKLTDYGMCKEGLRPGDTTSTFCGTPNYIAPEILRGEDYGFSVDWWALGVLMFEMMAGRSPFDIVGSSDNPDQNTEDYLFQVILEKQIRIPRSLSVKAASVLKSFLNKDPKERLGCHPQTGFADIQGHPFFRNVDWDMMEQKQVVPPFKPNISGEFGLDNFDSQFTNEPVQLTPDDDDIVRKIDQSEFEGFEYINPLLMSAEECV
Kind of assay: PKCι IC50 IMAP fluorescence polarisation assay, full-length enzyme. Format: biochemical. As to conditions: full length PKCi at 15 μM ATP; read-out: IC50 in IMAP assay against full length PKCi. (In general: Polarisation of emitted light reports the rotation of a fluorescent probe.)
As to `O=C(Nc1cc(-c2nc(N[C@@H]3CCNC3)c3sccc3n2)ccn1)c1ccc(N2CCOCC2)cc1` [compound 621, 4-Morpholin-4-yl-N-{4-[4-((R)-pyrrolidin-3-ylamino)-thieno[3,2-d]pyrimidin-2-yl]-pyridin-2-yl}-benzamide], the IC50 (in general, the point on the concentration scale where inhibition reaches its midpoint) is 0.1 to 1 µM.
Still for that read-out and setting: to `CC(C)(C)[Si](C)(C)C#Cc1csc2c(NC[C@@H](N)Cc3ccccc3)nc(-c3ccncc3)nc12` [compound 399, (S)-N*1*-{7-[(tert-Butyl-dimethyl-silanyl)-ethynyl]-2-pyridin-4-yl-thieno[3,2-d]pyrimidin-4-yl}-3-phenyl-propane-1,2-diamine] belongs 1 to 10 µM; to `Cc1cccc(Nc2csc3c(N[C@@H]4CCNC4)nc(-c4ccncc4F)nc23)c1` [compound 492, 2-(3-Fluoro-pyridin-4-yl)-N*4*-(R)-pyrrolidin-3-yl-N*7*-m-tolyl-thieno[3,2-d]pyrimidine-4,7-diamine], 10 to 40 µM.
Still for that read-out and setting: to `Cc1noc(C)c1-c1csc2c(NC[C@@H](N)Cc3ccccc3)nc(-c3ccncc3)nc12` [compound 392, N*1*-[7-(3,5-Dimethyl-isoxazol-4-yl)-2-pyridin-4-yl-thieno[3,2-d]pyrimidin-4-yl]-3-phenyl-propane-1,2-diamine] belongs 1 to 10 µM; to `CN(C)S(=O)(=O)c1ccc(Nc2cc(-c3nc(N[C@@H]4CCNC4)c4sccc4n3)ccn2)cc1` [compound 610, N,N-Dimethyl-4-{4-[4-((R)-pyrrolidin-3-ylamino)-thieno[3,2-d]pyrimidin-2-yl]-pyridin-2-ylamino}-benzenesulfonamide], 1 to 10 µM.
Consider `CNCCNc1nc(-c2ccncc2)nc2c(Br)csc12` [compound 345, N-(7-Bromo-2-pyridin-4-yl-thieno[3,2-d]pyrimidin-4-yl)-N′-methyl-ethane-1,2-diamine], for which the IC50 lay in the range of 1 to 10 µM.
The same measure, in the same setting: to `c1ccc(Nc2csc3c(N[C@@H]4CCNC4)nc(-c4ccncc4)nc23)nc1` [compound 487, 2-Pyridin-4-yl-N*7*- pyridin-2-yl-N*4*-(R)-pyrrolidin-3-yl-thieno[3,2-d]pyrimidine-4,7-diamine] belongs 1 to 10 µM.
Still for that read-out and setting: the same measure for `COc1cccc(-c2c(C(C)(C)C)sc3c(NC[C@@H](N)Cc4ccccc4)nc(-c4ccncc4)nc23)c1` [compound 441, (S)-N*1*-[6-tert-Butyl-7-(3-methoxy-phenyl)-2-pyridin-4-yl-thieno[3,2-d]pyrimidin-4-yl]-3-phenyl-propane-1,2-diamine]: 10 to 40 µM; for `Cc1csc(-c2csc3c(NC[C@@H](N)Cc4ccccc4)nc(-c4ccncc4)nc23)c1` [compound 395, (S)-N*1*-[7-(4-Methyl-thiophen-2-yl)-2-pyridin-4-yl-thieno[3,2-d]pyrimidin-4-yl]-3-phenyl-propane-1,2-diamine]: 1 to 10 µM; for `CC(C)[C@](C)(O)C#Cc1csc2c(NC[C@@H](N)Cc3ccccc3)nc(-c3ccncc3)nc12` [compound 524, (S)-1-[4-((S)-2-Amino-3-phenyl-propylamino)-2-pyridin-4-yl-thieno[3,2-d]pyrimidin-7-yl]-3,4-dimethyl-pent-1-yn-3-ol]: 1 to 10 µM.
Same read-out and setting: to `N[C@H](CNc1nc(-c2ccncc2)nc2c(C3CC3)csc12)Cc1ccccc1` [compound 413, (S)-N*1*-(7-Cyclopropyl-2-pyridin-4-yl-thieno[3,2-d]pyrimidin-4-yl)-3-phenyl-propane-1,2-diamine] belongs under 0.1 µM.

Still in this assay, the particulars now being: full length PKCi at 15 μM ATP; read-out: IC50 in IMAP assay against full length PKCi (Activity).
As to `CC(C)CN1CCc2c(sc3nc(-c4ccncc4)nc(NCCN)c23)C1` [compound 114, N*1*-(7-Isobutyl-2-pyridin-4-yl-5,6,7,8-tetrahydro-pyrido[4′,3′:4,5]thieno[2,3-d]pyrimidin-4-yl)-ethane-1,2-diamine], the IC50 fell in the range of 10 to 40 µM.
Take `N[C@H](CNc1nc(-c2ccncc2)nc2sc3c(c12)CCN(C(=O)c1ccccc1)C3)Cc1ccccc1` [compound 72, [4-((S)-2-Amino-3-phenyl-propylamino)-2-pyridin-4-yl-5,8-dihydro-6H-pyrido[4′,3′:4,5]thieno[2,3-d]pyrimidin-7-yl]-phenyl-methanone]: the IC50 lay in the range of 1 to 10 µM.
